The source made the active and inactive calls. The calls are words filed in the database; no cut-off is given here.
Tests used:
Mus musculus [1] = assay: Anti-colitis activity against DSS-induced ulcerative colitis C57BL/6 mouse model assessed as reduction in mucosal damage in colon at 12.5 to 25 mg/kg, po for 10 days consecutively by H and E staining based microscopic analysis; type: functional, organism-based; settings: dose 12.5-25 mg/kg, time 10.0 day
CD4+ve Th [2] = assay: Effect on apoptosis in C57BL/6 mouse mesenteric lymph node CD4+ve Th cells assessed as apoptotis rate at 0.3 to 3 uM incubated for 96 hrs by Annexin-V/PI staining based flow cytometry; type: functional, cell-based; settings: dose 0.3-3 µM
[3] = target: Pyruvate kinase PKM (Mus musculus) (UniProt P52480); assay: Binding affinity to PKM2 in C57BL/6 mouse mesenteric lymph node CD4+ve Th cells assessed as increase in denaturation temperature at 3 uM incubated for 4 hrs by Solvent-induced protein precipitation analysis; type: tissue-based; settings: filed as activator
CD4+ve Th [4] = assay: (§1) Inhibition of aerobic glycolysis in anti-CD3/CD28 stimulated C57BL/6 mouse mesenteric lymph node CD4+ve Th cells assessed as downregulation of HK2 protein expression level at 0.3 to 3 uM incubated for 96 hrs in presence of recombinant human TGF-beta, recombinant mouse IL-6 and recombinant mouse IL-23 by Western blot analysis; type: functional, cell-based; settings: dose 0.3-3 µM
[5] = Tmax in Sprague-Dawley rat at 75 mg/kg,po and measured upto 24 hrs by LC-MS/MS analysis; type: ADME, organism-based; settings: in vivo
Mus musculus [6] = assay: Anti-colitis activity against DSS-induced ulcerative colitis C57BL/6 mouse model assessed as reduction in inflammatory cell infiltration in colon at 12.5 to 25 mg/kg, po for 10 days consecutively by H and E staining based microscopic analysis; type: functional, organism-based; settings: dose 12.5-25 mg/kg, time 10.0 day
[7] = AUCt in Sprague-Dawley rat at 8 mg/kg,iv and measured upto 24 hrs by LC-MS/MS analysis; type: ADME, organism-based; set-up: time < 24 hrs, dose 8 mg/kg, route iv; settings: in vivo
Mus musculus [8] = assay: Anti-colitis activity against DSS-induced ulcerative colitis C57BL/6 mouse model assessed as downregulation of Foxp3 mRNA expression level in spleen at 6.25 to 25 mg/kg, po for 10 days consecutively by qPCR assay; type: functional, organism-based; settings: dose 6.25-25 mg/kg, time 10.0 day
Mus musculus [9] = assay: Anti-colitis activity against TNBS-induced ulcerative colitis BALB/c mouse model assessed as decrease in inflammatory injury by measuring MPO level at 12.5 to 25 mg/kg, po for consecutive 7 days; type: functional, organism-based; settings: dose 12.5-25 mg/kg, time 7.0 day
CD4+ve Th [10] = assay: as §1, with “PFK1” for “HK2”; type: functional, cell-based; settings: dose 0.3-3 µM
[11] = Microsomal stability in rat liver microsomes assessed as intrinsic clearance; type: ADME, Microsome; settings: read-out: CLH
[12] = Inhibition of Treg cells differentiation in anti-CD3/CD28 stimulated C57BL/6 mouse mesenteric lymph node CD4+ve Th cells assessed as decrease in proportion of Foxp3-positive Treg cells at 3 uM incubated for 96 hrs in presence of recombinant human TGF-beta by flow cytometry (Rvb= 21.1%); type: functional; settings: C57BL/6, CD4+ve Th
Mus musculus [13] = assay: Anti-colitis activity against DSS-induced ulcerative colitis C57BL/6 mouse model assessed as downregulation of IL10 mRNA expression level in spleen at 6.25 to 25 mg/kg, po for 10 days consecutively by qPCR assay; type: functional, organism-based; settings: dose 6.25-25 mg/kg, time 10.0 day
Mus musculus [14] = assay: Anti-colitis activity against DSS-induced ulcerative colitis C57BL/6 mouse model assessed as downregulation of IL17a mRNA expression level in colon at 12.5 to 25 mg/kg, po for 10 days consecutively by qPCR assay; type: functional, organism-based; settings: dose 12.5-25 mg/kg, time 10.0 day
[15] = Toxicity in C57BL/6 mouse assessed as body weight change at 6.25 to 25 mg/kg, po for 10 days consecutively; type: organism-based; settings: in vivo, 240 h, dose 6.25-25 mg/kg, time 10 day
[16] = Microsomal stability in rat liver microsomes assessed as half life; type: ADME, Microsome
[17] = Volume of distribution in Sprague-Dawley rat at 8 mg/kg,iv and measured upto 24 hrs by LC-MS/MS analysis; type: ADME, organism-based; settings: in vivo
Mus musculus [18] = assay: Anti-colitis activity against TNBS-induced ulcerative colitis BALB/c mouse model assessed as increase in colon length at 12.5 to 25 mg/kg, po for consecutive 7 days; type: functional, organism-based; settings: dose 12.5-25 mg/kg, time 7.0 day
Mus musculus [19] = assay: Anti-colitis activity against DSS-induced ulcerative colitis C57BL/6 mouse model assessed as reduction in histological score in colon at 12.5 to 25 mg/kg, po for 10 days consecutively by H and E staining based microscopic analysis; type: functional, organism-based; settings: dose 12.5-25 mg/kg, time 10.0 day
[20] = MRT(t) in Sprague-Dawley rat at 75 mg/kg,po and measured upto 24 hrs by LC-MS/MS analysis; type: ADME, organism-based; settings: in vivo
Mus musculus [21] = assay: Anti-colitis activity against DSS-induced ulcerative colitis C57BL/6 mouse model assessed as downregulation of RORC mRNA expression level in spleen at 12.5 to 25 mg/kg, po for 10 days consecutively by qPCR assay; type: functional, organism-based; settings: dose 12.5-25 mg/kg, time 10.0 day
CD4+ve Th [22] = assay: as §1, with “Th17 cells differentiation” for “aerobic glycolysis”, “RORC mRNA” for “HK2 protein”, “0.1” for “0.3”, “qPCR” for “Western blot”; type: functional, cell-based; settings: dose 0.1-3 µM
[23] = Inhibition of Treg cells differentiation in anti-CD3/CD28 stimulated C57BL/6 mouse mesenteric lymph node CD4+ve Th cells assessed as decrease in proportion of Foxp3-positive Treg cells at 0.3 uM incubated for 96 hrs in presence of recombinant human TGF-beta by flow cytometry (Rvb= 21.1%); type: functional; settings: C57BL/6, CD4+ve Th
CD4+ve Th [24] = assay: as §1, with “Th17 cells differentiation” for “aerobic glycolysis”, “IL17a mRNA” for “HK2 protein”, “0.1” for “0.3”, “qPCR” for “Western blot”; type: functional, cell-based; settings: dose 0.1-3 µM
CD4+ve Th [25] = assay: as §1, with “Th17 cells differentiation” for “aerobic glycolysis”, “IL21 mRNA” for “HK2 protein”, “0.1” for “0.3”, “qPCR” for “Western blot”; type: functional, cell-based; settings: dose 0.1-3 µM
[26] = AUCt in Sprague-Dawley rat at 75 mg/kg,po and measured upto 24 hrs by LC-MS/MS analysis; type: ADME, organism-based; set-up: time < 24 hrs, dose 75 mg/kg, route po; settings: in vivo
[27] = Inhibition of Th17 cells differentiation in anti-CD3/CD28 stimulated C57BL/6 mouse mesenteric lymph node CD4+ve Th cells assessed as decrease in proportion of IL17A-positive Th17 cells at 1 uM incubated for 96 hrs in presence of recombinant human TGF-beta, recombinant mouse IL-6 and recombinant mouse IL-23 by flow cytometry (Rvb= 16.7%); type: functional; settings: C57BL/6, CD4+ve Th

Sequence of Pyruvate kinase PKM (Mus musculus) (P52480 whole entry): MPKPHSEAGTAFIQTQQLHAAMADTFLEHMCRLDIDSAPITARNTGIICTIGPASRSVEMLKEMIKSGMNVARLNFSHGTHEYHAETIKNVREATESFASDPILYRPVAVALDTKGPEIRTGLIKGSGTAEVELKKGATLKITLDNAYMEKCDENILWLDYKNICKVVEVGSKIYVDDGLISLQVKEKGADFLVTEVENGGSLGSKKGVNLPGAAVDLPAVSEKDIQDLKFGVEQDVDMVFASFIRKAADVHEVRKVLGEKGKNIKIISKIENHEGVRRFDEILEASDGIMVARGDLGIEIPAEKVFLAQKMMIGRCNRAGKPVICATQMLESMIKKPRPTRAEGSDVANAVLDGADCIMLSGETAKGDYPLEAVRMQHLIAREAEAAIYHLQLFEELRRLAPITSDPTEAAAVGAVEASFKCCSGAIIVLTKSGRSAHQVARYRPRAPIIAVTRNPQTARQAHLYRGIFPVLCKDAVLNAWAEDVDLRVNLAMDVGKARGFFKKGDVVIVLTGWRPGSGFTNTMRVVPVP

Activity [3]: Active
Tmax [5]: 6 h
AUC(0-t) at 24 h [7]: 1230 ng·h/mL
microsomal CLint [11]: 110 µL/min/mg
half-life [16]: 0.21 h
Vd [17]: 17.6 L/kg
MRT last at 24 h [20]: 12.4 h
AUC(0-t) at 24 h [26]: 322 ng·h/mL
SMILES: C=C1C(=O)O[C@H]2[C@H]1CC[C@@]1(C)[C@@H](CC[C@@]3(C)O[C@@H]23)C1(F)F
Activity (Mus musculus [1]): Active
Activity (CD4+ve Th [2]): inactive
inhibition (CD4+ve Th [4]): Active
Activity (Mus musculus [6]): Active
Activity (Mus musculus [8]): inactive
Activity (Mus musculus [9]): Active
inhibition (CD4+ve Th [10]): Active
Foxp3+ cells at 3 µM [12]: 20.8%
Activity (Mus musculus [13]): inactive
Activity (Mus musculus [14]): Active
Activity [15]: Non-Toxic
Activity (Mus musculus [18]): Active
Activity (Mus musculus [19]): Active
Activity (Mus musculus [21]): Active
inhibition (CD4+ve Th [22]): Active
Foxp3+ cells at 0.3 µM [23]: 18.4%
inhibition (CD4+ve Th [24]): Active
inhibition (CD4+ve Th [25]): Active
IL17A+ cells at 1 µM [27]: 8.1%

From ChEMBL document CHEMBL5338738, “Discovery of Novel Sesquiterpene Lactone Derivatives as Potent PKM2 Activators for the Treatment of Ulcerative Colitis” (J Med Chem, 2023)
